Columns and labels:
[1] = Inhibition of GST tagged NDM-1 (unknown origin) expressed in Escherichia coli BL21 Star (DE3) competent cells using CCF2-FA as substrate incubated for 2 hrs by fluorescence based analysis
[2] = Inhibition of GST tagged IMP-1 (unknown origin) expressed in Escherichia coli BL21 Star (DE3) competent cells using CCF2-FA as substrate incubated for 2 hrs by fluorescence based analysis
[3] = Inhibition of GST tagged VIM-1 (unknown origin) expressed in Escherichia coli BL21 Star (DE3) competent cells using CCF2-FA as substrate incubated for 2 hrs by fluorescence based analysis
Escherichia coli = experiment: Potentiation of imipenem induced antibacterial activity against Escherichia coli CLB30005 harbouring NDM-1 incubated for 18 to 22 hrs in presence of imipenem by spectrophotometer based analysis; assay type: functional; details: time 18-22 hrs
Serratia marcescens = experiment: Potentiation of imipenem induced antibacterial activity against Serratia marcescens CL5741 harbouring IMP-1 incubated for 18 to 22 hrs imipenem by spectrophotometer based analysis; assay type: functional; details: time 18-22 hrs
Klebsiella pneumoniae = experiment: Potentiation of imipenem induced antibacterial activity against Klebsiella pneumoniae IHMA599644 harbouring VIM-1 incubated for 18 to 22 hrs imipenem by spectrophotometer based analysis; assay type: functional; details: time 18-22 hrs
Pseudomonas aeruginosa [4] = experiment: Potentiation of imipenem induced antibacterial activity against isogenic efflux wild type Pseudomonas aeruginosa MB9798 harbouring IMP incubated for 18 to 22 hrs imipenem and beta lactamase inhibitor by spectrophotometer based analysis; assay type: functional; details: time 18-22 hrs
Pseudomonas aeruginosa [5] = experiment: Potentiation of imipenem induced antibacterial activity against isogenic efflux deleted mutant Pseudomonas aeruginosa MB9799 harbouring IMP incubated for 18 to 22 hrs imipenem and beta lactamase inhibitor by spectrophotometer based analysis; assay type: functional; details: time 18-22 hrs
Pseudomonas aeruginosa [6] = experiment: Efflux ratio of MITC95 for potentiation of imipenem induced antibacterial activity against isogenic efflux wild type Pseudomonas aeruginosa MB9798 harbouring IMP to MITC95 for potentiation of imipenem induced antibacterial activity against isogenic efflux deleted mutant Pseudomonas aeruginosa MB9799 harbouring IMP; assay type: functional
[7] = AUC in rat at 1 mg/kg, iv measured after 24 hrs by HPLC-MS analysis; assay type: ADME, organism-based; details: in vivo
[8] = Clearance in rat at 1 mg/kg, iv measured after 24 hrs by HPLC-MS analysis; assay type: ADME, organism-based; details: in vivo
[9] = Volume of distribution at steady state in rat at 1 mg/kg, iv measured after 24 hrs by HPLC-MS analysis; assay type: ADME, organism-based; details: in vivo, read-out: Vdss
[10] = Cmax in rat at 1 mg/kg, iv measured after 24 hrs by HPLC-MS analysis; assay type: ADME, organism-based; details: in vivo
[11] = MRT in rat at 1 mg/kg, iv measured after 24 hrs by HPLC-MS analysis; assay type: ADME, organism-based; details: in vivo
[12] = Unbound fraction in rat plasma at 1 mg/kg, iv measured after 24 hrs by HPLC-MS analysis; assay type: ADME, organism-based
[13] = AUC in Beagle dog at 1 mg/kg, iv measured after 24 hrs by HPLC-MS analysis; assay type: ADME, organism-based, Canis lupus familiaris; details: in vivo
[14] = Clearance in Beagle dog at 1 mg/kg, iv measured after 24 hrs by HPLC-MS analysis; assay type: ADME, organism-based, Canis lupus familiaris; details: in vivo
[15] = Volume of distribution at steady state in Beagle dog at 1 mg/kg, iv measured after 24 hrs by HPLC-MS analysis; assay type: ADME, organism-based, Canis lupus familiaris; details: in vivo, read-out: Vdss
[16] = Cmax in Beagle dog at 1 mg/kg, iv measured after 24 hrs by HPLC-MS analysis; assay type: ADME, organism-based, Canis lupus familiaris; details: in vivo
[17] = MRT in Beagle dog at 1 mg/kg, iv measured after 24 hrs by HPLC-MS analysis; assay type: ADME, organism-based, Canis lupus familiaris; details: in vivo
[18] = Unbound fraction in Beagle dog plasma at 1 mg/kg, iv measured after 24 hrs by HPLC-MS analysis; assay type: ADME, organism-based, Canis lupus familiaris
[19] = Toxicity in Beagle dog assessed as severe adverse effect at 1 mg/kg, iv measured after 24 hrs by HPLC-MS analysis; assay type: organism-based, Canis lupus familiaris; details: in vivo

Row | Structure (SMILES) | IC50 [1] | IC50 [2] | IC50 [3] | MITC95 (Escherichia coli) | MITC95 (Serratia marcescens) | MITC95 (Klebsiella pneumoniae) | MITC95 (Pseudomonas aeruginosa [4]) | MITC95 (Pseudomonas aeruginosa [5]) | Ratio (Pseudomonas aeruginosa [6]) | also measured
1 | Nc1ccc2ccc(-c3ccc(C(F)(F)F)c(S(N)(=O)=O)c3-c3nn[nH]n3)cc2n1 | 1.1 nM | 1.5 nM | 0.2 nM | 0.8 µM | 3.1 µM | 3.1 µM | 100 µM | 0.39 µM | 256 | –
2 | N=C(N)N[C@H]1CC[C@H](c2ccc(C(F)(F)F)c(S(N)(=O)=O)c2-c2nn[nH]n2)CC1 | 17.5 nM | 25.5 nM | 0.7 nM | 1.2 µM | 0.4 µM | 1.2 µM | 200 µM | 0.78 µM | 256 | –
3 | Nc1nc2cccc(-c3ccc(C(F)(F)F)c(S(N)(=O)=O)c3-c3nn[nH]n3)c2s1 | 0.04 nM | 0.8 nM | 0.1 nM | 1.6 µM | 6.3 µM | 6.3 µM | 50 µM | 1.56 µM | 32 | –
4 | NS(=O)(=O)c1cccc(-c2ccc(C3CCNCC3)cc2)c1-c1nn[nH]n1 | 5 nM | 34 nM | 19 nM | 3 µM | 9 µM | 38 µM | 200 µM | 1.56 µM | 128 | –
5 | NCCCc1ccc(-c2cccc3sc(N)nc23)c(-c2nn[nH]n2)c1S(N)(=O)=O | 0.8 nM | 12 nM | 1.8 nM | 0.8 µM | 1.6 µM | 1.6 µM | 12.5 µM | 0.8 µM | 16 | –
6 | NS(=O)(=O)c1c(C(F)(F)F)ccc(-c2ccc(NS(=O)(=O)C3CC3)cc2)c1-c1nn[nH]n1 | 0.3 nM | 0.2 nM | 0.08 nM | 6.3 µM | 3.1 µM | 12.5 µM | 50 µM | 0.78 µM | 64 | –
7 | NS(=O)(=O)c1c(Cl)ccc(-c2ccc(C3CCNCC3)cc2)c1-c1nn[nH]n1 | 6 nM | 9 nM | 3 nM | 0.8 µM | 0.4 µM | 1.6 µM | 50 µM | 0.39 µM | 128 | –
8 | Nc1nc2ccc(-c3ccc(C(F)(F)F)c(S(N)(=O)=O)c3-c3nn[nH]n3)cc2s1 | 0.8 nM | 2.5 nM | 0.3 nM | 3.1 µM | 3.1 µM | 12.5 µM | 200 µM | 1.56 µM | 128 | –
9 | NS(=O)(=O)c1c(C(F)(F)F)ccc([C@H]2CC[C@H](N)CC2)c1-c1nnn[nH]1 | 13.5 nM | 39.4 nM | 0.7 nM | 0.4 µM | 0.8 µM | 0.8 µM | 200 µM | 0.78 µM | 256 | AUC at 24 h [7]: 5 µM·h; clearance [8]: 8.7 mL/min/kg; Vd [9]: 0.45 L/kg; Cmax [10]: 12.7 µM; MRT [11]: 0.87 h; fraction unbound at 24 h [12]: 0.78; AUC at 24 h [13]: 16.7 µM·h; clearance [14]: 2.6 mL/min/kg; Vd [15]: 0.31 L/kg; Cmax [16]: 15 µM; MRT [17]: 2.03 h; fraction unbound at 24 h [18]: 0.76; Activity [19]: Non-Toxic
10 | NS(=O)(=O)c1c(C(F)(F)F)ccc(-c2ccc(C3CCNCC3)cc2)c1-c1nn[nH]n1 | 0.9 nM | 1.2 nM | 0.3 nM | 0.7 µM | 0.2 µM | 1.9 µM | 50 µM | 0.78 µM | 64 | –

Source: ChEMBL document CHEMBL5518207, “Structure Guided Discovery of Novel Pan Metallo-β-Lactamase Inhibitors with Improved Gram-Negative Bacterial Cell Penetration” (J Med Chem, 2024)
